Experimental data as given in patent US11638427B2, “Methods and compositions for altering secondary metabolites in plants” (Impello Biosciences, Inc, priority 2020, dated 2023).
Values joined by “and” are separate entries in the source; they are usually repeats but may differ in a detail not shown here. Equal entries are not always repeated.

System: CBDRx Cherry hemp clones
Experiment: Foliar spray of MS, MDJ and MS+MDJ on hemp clones: biomass, cannabinoid and terpene analysis
Format: in vivo, Cannabis spp.
Design: CBDA / CBD / THCA / Total CBG / Total cannabinoids: unit not given here
Details: for plants died before the end of the experiment: four plants per treatment group
Method: Methyl salicylate (MS) is an antagonistic compound to the jasmonates. To investigate the effect of MS alone and in conjunction with MDJ, MS (CAS No.: 119-36-8), MDJ, and the combination (MS+MDJ) were applied by foliar spray to CBDRx Cherry hemp clones once per week during both vegetative and flowering phases. Plants were transplanted into 1-gallon pots with Red's soil and put into vegetative light cycle (18L/6D). […] Plants were grown under a total of 12 Boost (Thrive Agritech, NY) 130-watt LED lights set to 18L: 6D photoperiod during the vegetative phase (2 weeks) and this was followed by a 12L: 12D photoperiod during the flowering phase (7 weeks), using the same lighting fixtures. Throughout the nine weeks, all plants were watered when needed with Jack's nutrients.
MS or MDJ treatments were applied at the following concentrations: [1 mM], [4.25 mM], [7.5 mM] and [10 mM]. Each concentration was prepared from a one molar stock solution diluted with RO water and TWEEN®-20 (1M stock) was added. Each plant was sprayed till dripping, which was approximately 50-75 ml. To apply the combination of the two biochemicals, MS and MDJ were sprayed separately but simultaneously, to ensure each compound was applied evenly onto the plant. Each compound was applied using a SPRAYMASTER Chemical Sprayer (King of Prussia, Pa.).
Plants were harvested two months after transplant. After harvesting, plants were air dried at room temperature for two weeks. Once plants were sufficiently dry, above ground dry weights were recorded and dried flower samples were collected and sent to a third-party lab for terpene and cannabinoid analysis. Two plants (#3 and #4) in treatment group MDJ [7.5] mM, two plants (#3 and #4) in MS [4.25] mM, one plant (#4) in MS [7.5], and one plant (#4) in MDJ [10] died before the end of the experiment.

[1] = 1 mM foliar spray, Avg. of group
[2] = 1 mM foliar spray, individual plant
[3] = 4.25 mM foliar spray, Avg. of group
[4] = 4.25 mM foliar spray, individual plant
[5] = 7.5 mM foliar spray, Avg. of group
[6] = 7.5 mM foliar spray, individual plant
[7] = 10 mM foliar spray, Avg. of group
[8] = 10 mM foliar spray, individual plant

`COC(=O)c1ccccc1O` [MS, Methyl salicylate] showed an Alpha-bisabolol [1] of 0.08263 % wt/wt, an Alpha-humulene [1] of 0.07955 % wt/wt and a Beta-caryophyllene [1] of 0.2069 % wt/wt. The CBCA [1] was 0.715, the CBD [1] was 0.105 and the CBDA [1] was 13.675. The CBGA [1] was 0.365, the Limonene [1] was 0.1101 % wt/wt and the THCA [1] was 0.6. The “Total CBD” value [1] was 12.1025, the “Total CBG” value [1] was 0.32 and the Total cannabinoids [1] was 15.46. For the same molecule, the “Total d9THC” value [1] was 0.525, the alpha-pinene [1] was 0 % wt/wt and the beta-myrcene [1] was 0.8188 % wt/wt. For the same molecule, the beta-pinene [1] was 0.02077 % wt/wt, the total terpenes [1] was 1.435 % wt/wt and the Alpha-bisabolol [2] was 0.0925 % wt/wt and 0.1053 % wt/wt and 0.1236 % wt/wt and 0.00912 % wt/wt. The Alpha-humulene [2] was 0.076 % wt/wt and 0.0724 % wt/wt and 0.0922 % wt/wt and 0.0776 % wt/wt, the Beta-caryophyllene [2] was 0.1974 % wt/wt and 0.1911 % wt/wt and 0.243 % wt/wt and 0.1959 % wt/wt and the CBCA [2] was 0.82 and 0.64 and 0.67 and 0.73. For the same molecule, the CBD [2] was 0.13 and 0 and 0.12 and 0.17, the CBDA [2] was 15.19 and 12.85 and 13.24 and 13.42 and the CBGA [2] was 0.42 and 0.34 and 0.32 and 0.38. For the same molecule, the Limonene [2] was 0.1096 % wt/wt and 0.11 % wt/wt and 0.1101 % wt/wt and 0.1106 % wt/wt, the THCA [2] was 0.66 and 0.56 and 0.58 and 0.6 and the “Total CBD” value [2] was 13.45 and 11.27 and 11.74 and 11.95. For the same molecule, the “Total CBG” value [2] was 0.37 and 0.3 and 0.28 and 0.33, the Total cannabinoids [2] was 17.22 and 14.39 and 14.93 and 15.3 and the “Total d9THC” value [2] was 0.58 and 0.49 and 0.51 and 0.52. The alpha-pinene [2] was 0 % wt/wt, the beta-myrcene [2] was 0.7692 % wt/wt and 0.8926 % wt/wt and 0.845 % wt/wt and 0.7684 % wt/wt and the beta-pinene [2] was 0.0215 % wt/wt and 0.0201 % wt/wt and 0.021 % wt/wt and 0.0205 % wt/wt. For the same molecule, the total terpenes [2] was 1.36 % wt/wt (2×) and 1.48 % wt/wt and 1.54 % wt/wt, the Alpha-bisabolol [3] was 0.1143 % wt/wt and the Alpha-humulene [3] was 0.0794 % wt/wt. For the same molecule, the Beta-caryophyllene [3] was 0.1996 % wt/wt, the CBCA [3] was 0.61 and the CBD [3] was 0.16. The CBDA [3] was 11.8, the CBGA [3] was 0.275 and the Limonene [3] was 0.1 % wt/wt. For the same molecule, the THCA [3] was 0.51, the “Total CBD” value [3] was 10.505 and the “Total CBG” value [3] was 0.24. The Total cannabinoids [3] was 13.355, the “Total d9THC” value [3] was 0.45 and the alpha-pinene [3] was 0 % wt/wt. The beta-myrcene [3] was 0.7751 % wt/wt, the beta-pinene [3] was 0.0197 % wt/wt and the total terpenes [3] was 1.38 % wt/wt. For the same molecule, the “plants died before the end of the experiment” value (4.25 mM foliar spray) was “two plants”, the Alpha-bisabolol [4] was 0.1185 % wt/wt and 0.1101 % wt/wt and the Alpha-humulene [4] was 0.0819 % wt/wt and 0.0769 % wt/wt. For the same molecule, the Beta-caryophyllene [4] was 0.2091 % wt/wt and 0.19 % wt/wt, the CBCA [4] was 0.61 and the CBD [4] was 0.15 and 0.17. For the same molecule, the CBDA [4] was 11.88 and 11.72, the CBGA [4] was 0.27 and 0.28 and the Limonene [4] was 0.1042 % wt/wt and 0.0958 % wt/wt. The THCA [4] was 0.52 and 0.5, the “Total CBD” value [4] was 10.57 and 10.44 and the “Total CBG” value [4] was 0.24. For the same molecule, the Total cannabinoids [4] was 13.43 and 13.28, the “Total d9THC” value [4] was 0.46 and 0.44 and the alpha-pinene [4] was 0 % wt/wt. The beta-myrcene [4] was 0.8061 % wt/wt and 0.744 % wt/wt, the beta-pinene [4] was 0.0209 % wt/wt and 0.0185 % wt/wt and the total terpenes [4] was 1.43 % wt/wt and 1.33 % wt/wt. It also gave an Alpha-bisabolol [5] of 0.1235 % wt/wt, an Alpha-humulene [5] of 0.09093 % wt/wt and a Beta-caryophyllene [5] of 0.23 % wt/wt. The CBCA [5] was 0.66, the CBD [5] was 0.1833 and the CBDA [5] was 12.833. For the same molecule, the CBGA [5] was 0.41, the Limonene [5] was 0.09533 % wt/wt and the THCA [5] was 0.57. For the same molecule, the “Total CBD” value [5] was 11.44, the “Total CBG” value [5] was 0.356 and the Total cannabinoids [5] was 14.656. The “Total d9THC” value [5] was 0.5, the alpha-pinene [5] was 0 % wt/wt and the beta-myrcene [5] was 0.7014 % wt/wt. For the same molecule, the beta-pinene [5] was 0 % wt/wt, the total terpenes [5] was 1.343 % wt/wt and the “plants died before the end of the experiment” value (7.5 mM foliar spray) was “one plant”. For the same molecule, the Alpha-bisabolol [6] was 0.1154 % wt/wt and 0.1201 % wt/wt and 0.1349 % wt/wt, the Alpha-humulene [6] was 0.0878 % wt/wt and 0.083 % wt/wt and 0.102 % wt/wt and the Beta-caryophyllene [6] was 0.2204 % wt/wt and 0.2101 % wt/wt and 0.2595 % wt/wt. For the same molecule, the CBCA [6] was 0.68 (2×) and 0.62, the CBD [6] was 0.3 and 0.1 and 0.15 and the CBDA [6] was 12.97 and 12.23 and 13.3. The CBGA [6] was 0.4 and 0.37 and 0.46, the Limonene [6] was 0.0902 % wt/wt and 0.0968 % wt/wt and 0.099 % wt/wt and the THCA [6] was 0.57 and 0.55 and 0.59. For the same molecule, the “Total CBD” value [6] was 11.68 and 10.83 and 11.81, the “Total CBG” value [6] was 0.35 and 0.32 and 0.4 and the Total cannabinoids [6] was 14.92 and 13.87 and 15.18. The “Total d9THC” value [6] was 0.5 and 0.48 and 0.52, the alpha-pinene [6] was 0 % wt/wt and the beta-myrcene [6] was 0.6564 % wt/wt and 0.7151 % wt/wt and 0.7328 % wt/wt. For the same molecule, the beta-pinene [6] was 0 % wt/wt, the total terpenes [6] was 1.27 % wt/wt and 1.32 % wt/wt and 1.44 % wt/wt and the Alpha-bisabolol [7] was 0.109 % wt/wt. The Alpha-humulene [7] was 0.07612 % wt/wt, the Beta-caryophyllene [7] was 0.1899 % wt/wt and the CBCA [7] was 0.73. The CBD [7] was 0.155, the CBDA [7] was 14.5975 and the CBGA [7] was 0.4775. The Limonene [7] was 0.1418 % wt/wt, the THCA [7] was 0.625 and the “Total CBD” value [7] was 12.96. For the same molecule, the “Total CBG” value [7] was 0.42, the Total cannabinoids [7] was 16.585 and the “Total d9THC” value [7] was 0.55. It also gave an alpha-pinene [7] of 0.01702 % wt/wt, a beta-myrcene [7] of 1.084 % wt/wt and a beta-pinene [7] of 0.02447 % wt/wt. For the same molecule, the total terpenes [7] was 1.725 % wt/wt, the Alpha-bisabolol [8] was 0.1326 % wt/wt and 0.0981 % wt/wt and 0.1139 % wt/wt and 0.0915 % wt/wt and the Alpha-humulene [8] was 0.0912 % wt/wt and 0.0723 % wt/wt and 0.0736 % wt/wt and 0.0674 % wt/wt. The Beta-caryophyllene [8] was 0.2182 % wt/wt and 0.1794 % wt/wt and 0.192 % wt/wt and 0.1699 % wt/wt, the CBCA [8] was 0.71 and 0.73 and 0.72 and 0.76 and the CBD [8] was 0.17 and 0.12 and 0.33 and 0. For the same molecule, the CBDA [8] was 15.33 and 14.37 and 13.89 and 14.8, the CBGA [8] was 0.5 (2×) and 0.46 and 0.45 and the Limonene [8] was 0.213 % wt/wt and 0.1272 % wt/wt and 0.113 % wt/wt and 0.1141 % wt/wt. For the same molecule, the THCA [8] was 0.65 and 0.63 (2×) and 0.59, the “Total CBD” value [8] was 13.61 and 12.73 and 12.52 and 12.98 and the “Total CBG” value [8] was 0.44 (2×) and 0.4 (2×). For the same molecule, the Total cannabinoids [8] was 17.36 and 16.31 and 15.98 and 16.69, the “Total d9THC” value [8] was 0.57 and 0.55 and 0.52 and 0.56 and the alpha-pinene [8] was 0.0398 % wt/wt and 0.0283 % wt/wt and 0 % wt/wt (2×). For the same molecule, the beta-myrcene [8] was 1.6091 % wt/wt and 0.9913 % wt/wt and 0.8332 % wt/wt and 0.9015 % wt/wt, the beta-pinene [8] was 0.0299 % wt/wt and 0.023 % wt/wt and 0.0257 % wt/wt and 0.0193 % wt/wt and the total terpenes [8] was 2.43 % wt/wt and 1.6 % wt/wt and 1.43 % wt/wt and 1.44 % wt/wt. For the same molecule, the total terpene content (application of 1 mM or 4.25 mM) was “increased” and the “Aboveground fresh weight and dried weight compared to the control plants” value (at both 1 mM and 10 mM) was “significantly reduced”.
